pIC50: −log10 of the molar value.
What follows are compounds tested against T1, KRAS G12D/RAF1 (Homo sapiens, UniProt P01116, G12D) (assay: Protein-protein interaction (PPI) HTRF assay KRAS G12D/RAF1). Conditions: Table 4.
T1 construct: His6-MBP (N, cleaved yes); made in house; host or cells: E. coli
T1 sequence (P01116 with tags, fused parts or gaps isoform P01116-2 G12D): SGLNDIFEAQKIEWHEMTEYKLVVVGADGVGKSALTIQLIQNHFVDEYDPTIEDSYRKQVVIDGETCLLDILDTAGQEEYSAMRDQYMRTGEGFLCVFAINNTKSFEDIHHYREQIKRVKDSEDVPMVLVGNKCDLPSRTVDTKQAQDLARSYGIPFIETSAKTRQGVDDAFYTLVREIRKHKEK
Format: binding
Summary of the method: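 HTRF pairing of His-tagged RAF1 (52-131) plus Tb-cryptate donor with GppNHp-exchanged biotin-RAS (KRAS 1-169 wt/G12D/G12V, NRAS wt) plus streptavidin-d2 acceptor; compound sits 30 min with RAS first, then 1 h RT with RAF1. IC50 derived from 665/615 ratio, untagged RAF1 defining full inhibition.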
In the case of `N#Cc1c(N2CCCn3nc(C(=O)C4CC4)c(Cl)c3C2)nc(OC[C@@]23CCCN2C[C@H](F)C3)nc1N1CC2(CCc3sc(N)c(C#N)c32)C1` [Compound 62, 2-amino-1′-[6-[3-chloro-2-(cyclopropanecarbonyl)-4,6,7,8-tetrahydropyrazolo[1,5-a][1,4]diazepin-5-yl]-5-cyano-2-[[(2R,8S)-2-fluoro-1,2,3,5,6,7-hexahydropyrrolizin-8-yl]methoxy]pyrimidin-4-yl]spiro[5,6-dihydrocyclopenta[b]thiophene-4,3′-azetidine]-3-carbonitrile], the pIC50 was 4.00 to 5.00.
`N#Cc1c(N2C[C@H]3CC[C@@H](C2)N3)nc(OCC2(CN3CCOCC3)CC2)nc1N1CC2(CCCCc3sc(N)c(C#N)c32)C1` [Compound 70, 2-amino-1′-[5-cyano-2-[[1-(morpholinomethyl)cyclopropyl]methoxy]-6-[(1R,5S)-3,8-diazabicyclo[3.2.1]octan-3-yl]pyrimidin-4-yl]spiro[5,6,7,8-tetrahydrocyclohepta[b]thiophene-4,3′-azetidine]-3-carbonitrile] showed a pIC50 of 6.00 to 7.00.
`N#Cc1c(N2C[C@H]3CC[C@@H](C2)N3)nc(OCC2(CN3CC[S+]([O-])CC3)CC2)nc1N1CC2(CCc3sc(N)c(C#N)c32)C1` [Compound 71, 2-amino-1′-[5-cyano-6-[(1R,5S)-3,8-diazabicyclo[3.2.1]octan-3-yl]-2-[[1-[(1-oxo-1,4-thiazinan-4-yl)methyl]cyclopropyl]methoxy]pyrimidin-4-yl]spiro[5,6-dihydrocyclopenta[b]thiophene-4,3′-azetidine]-3-carbonitrile] was tested, and the pIC50 was 5.00 to 6.00.
For `N#Cc1c(N2C[C@H]3CC[C@@H](C2)N3)nc(OCC2(CN3CCOCC3)CC2)nc1N1CC2(CSc3sc(N)c(C#N)c32)C1` [Compound 73, 5-amino-1′-[5-cyano-2-[[1-(morpholinomethyl)cyclopropyl]methoxy]-6-[(1R,5S)-3,8-diazabicyclo[3.2.1]octan-3-yl]pyrimidin-4-yl]spiro[2H-thieno[2,3-b]thiophene-3,3′-azetidine]-4-carbonitrile], the pIC50 was 6.00 to 7.00.
With `N#Cc1c(N2CCCn3nc(-c4ccccn4)c(Cl)c3C2)nc(OCC2(CN3CCOCC3)CC2)nc1N1CC2(CCc3sc(N)c(C#N)c32)C1` [Compound 75, 2-amino-1′-[6-[3-chloro-2-(2-pyridyl)-4,6,7,8-tetrahydropyrazolo[1,5-a][1,4]diazepin-5-yl]-5-cyano-2-[[1-(morpholinomethyl)cyclopropyl]methoxy]pyrimidin-4-yl]spiro[5,6-dihydrocyclopenta[b]thiophene-4,3′-azetidine]-3-carbonitrile] the pIC50 was 6.00 to 7.00.
`N#Cc1c(N2C[C@H]3CC[C@@H](C2)N3)nc(OCc2ccccc2)nc1N1CC2(CCc3sc(N)c(C#N)c32)C1` [Compound 76, 2-amino-1′-[2-benzyloxy-5-cyano-6-[(1R,5S)-3,8-diazabicyclo[3.2.1]octan-3-yl]pyrimidin-4-yl]spiro[5,6-dihydrocyclopenta[b]thiophene-4,3′-azetidine]-3-carbonitrile] showed a pIC50 of 6.00 to 7.00.
Compound `N#Cc1c(N2C[C@H]3CC[C@@H](C2)N3)nc(OCc2ccn[nH]2)nc1N1CC2(CCc3sc(N)c(C#N)c32)C1` [Compound 79, 2-amino-1′-[5-cyano-6-[(1R,5S)-3,8-diazabicyclo[3.2.1]octan-3-yl]-2-(1H-pyrazol-5-ylmethoxy)pyrimidin-4-yl]spiro[5,6-dihydrocyclopenta[b]thiophene-4,3′-azetidine]-3-carbonitrile] has a pIC50 of 6.00 to 7.00.
`CN1CCN(CC2(COc3nc(N4C[C@H]5CC[C@@H](C4)N5)c(C#N)c(N4CC5(CCc6sc(N)c(C#N)c65)C4)n3)CC2)CC1=O` [Compound 80, 2-amino-1′-[5-cyano-2-[[1-[(4-methyl-3-oxo-piperazin-1-yl)methyl]cyclopropyl]methoxy]-6-[(1R,5S)-3,8-diazabicyclo[3.2.1]octan-3-yl]pyrimidin-4-yl]spiro[5,6-dihydrocyclopenta[b]thiophene-4,3′-azetidine]-3-carbonitrile] was tested, and the pIC50 was 6.00 to 7.00.
`CO[C@H]1CN(CC2(COc3nc(N4C[C@H]5CC[C@@H](C4)N5)c(C#N)c(N4CC5(CCc6sc(N)c(C#N)c65)C4)n3)CC2)C[C@@H]1F` [Compound 81, 2-amino-1′-[5-cyano-6-[(1R,5S)-3,8-diazabicyclo[3.2.1]octan-3-yl]-2-[[1-[[(3S,4S)-3-fluoro-4-methoxy-pyrrolidin-1-yl]methyl]cyclopropyl]methoxy]pyrimidin-4-yl]spiro[5,6-dihydrocyclopenta[b]thiophene-4,3′-azetidine]-3-carbonitrile] was tested, and the pIC50 was 5.00 to 6.00.
Work on `Cc1nc(-c2nn3c(c2Cl)CN(c2nc(OC[C@@]45CCCN4C[C@H](F)C5)nc(N4CC5(CCc6sc(N)c(C#N)c65)C4)c2C#N)CCC3)n(C)n1` [Compound 85, 2-amino-1′-[6-[3-chloro-2-(2,5-dimethyl-1,2,4-triazol-3-yl)-4,6,7,8-tetrahydropyrazolo[1,5-a][1,4]diazepin-5-yl]-5-cyano-2-[[(2R,8S)-2-fluoro-1,2,3,5,6,7-hexahydropyrrolizin-8-yl]methoxy]pyrimidin-4-yl]spiro[5,6-dihydrocyclopenta[b]thiophene-4,3′-azetidine]-3-carbonitrile] yielded a pIC50 of 4.00 to 5.00.
`N#Cc1c(N2C[C@H]3CC[C@@H](C2)N3)nc(OCC2(CN3CCOCC3)CC2)nc1N1CC2(C=CCc3sc(N)c(C#N)c32)C1` [Compound 86, 2-amino-1′-[5-cyano-2-[[1-(morpholinomethyl)cyclopropyl]methoxy]-6-[(1R,5S)-3,8-diazabicyclo[3.2.1]octan-3-yl]pyrimidin-4-yl]spiro[7H-benzothiophene-4,3′-azetidine]-3-carbonitrile] showed a pIC50 greater than 7.00.
`CN(C)CC1(COc2nc(N3CCCn4nc(C(=O)N(C)C)c(Cl)c4C3)c(C#N)c(N3CC4(CCc5sc(N)c(C#N)c54)C3)n2)CC1(F)F` (stereo not shown) [Compound 87, 5-[6-(2-amino-3-cyano-spiro[5,6-dihydrocyclopenta[b]thiophene-4,3′-azetidine]-1′-yl)-5-cyano-2-[[1-[(dimethylamino)methyl]-2,2-difluoro-cyclopropyl]methoxy]pyrimidin-4-yl]-3-chloro-N,N-dimethyl-4,6,7,8-tetrahydropyrazolo[1,5-a][1,4]diazepine-2-carboxamide] was tested, and the pIC50 was 5.00 to 6.00.
With `C[C@H](Oc1nc(N2C[C@H]3CC[C@@H](C2)N3)c(C#N)c(N2CC3(CCc4sc(N)c(C#N)c43)C2)n1)[C@@H]1CCCN1C` [Compound 88, 2-amino-1′-[5-cyano-6-[(1R,5S)-3,8-diazabicyclo[3.2.1]octan-3-yl]-2-[(1S)-1-[(2S)-1-methylpyrrolidin-2-yl]ethoxy]pyrimidin-4-yl]spiro[5,6-dihydrocyclopenta[b]thiophene-4,3′-azetidine]-3-carbonitrile] the pIC50 was 4.00 to 5.00.
For `N#Cc1c(N2C[C@H]3CC[C@@H](C2)N3)nc(OCC2(CN3C[C@@H]4C[C@H]3CO4)CC2)nc1N1CC2(CCc3sc(N)c(C#N)c32)C1` [Compound 89, 2-amino-1′-[5-cyano-6-[(1R,5S)-3,8-diazabicyclo[3.2.1]octan-3-yl]-2-[[1-[[(1S,4S)-2-oxa-5-azabicyclo[2.2.1]heptan-5-yl]methyl]cyclopropyl]methoxy]pyrimidin-4-yl]spiro[5,6-dihydrocyclopenta[b]thiophene-4,3′-azetidine]-3-carbonitrile], the pIC50 was 6.00 to 7.00.
For `CN(C)C(=O)c1nn2c(c1Cl)CN(c1nc(OC[C@@]34CCCN3C[C@H](F)C4)nc(N3CC4(CCc5sc(N)c(C#N)c54)C3)c1C#N)CC(F)(F)C2` [Compound 91, 5-[6-(2-amino-3-cyano-spiro[5,6-dihydrocyclopenta[b]thiophene-4,3′-azetidine]-1′-yl)-5-cyano-2-[[(2R,8S)-2-fluoro-1,2,3,5,6,7-hexahydropyrrolizin-8-yl]methoxy]pyrimidin-4-yl]-3-chloro-7,7-difluoro-N,N-dimethyl-6,8-dihydro-4H-pyrazolo[1,5-a][1,4]diazepine-2-carboxamide], the pIC50 was 6.00 to 7.00.
With `N#Cc1c(N2C[C@H]3CC[C@@H](C2)N3)nc(OC[C@@H]2CCN2CC(F)(F)F)nc1N1CC2(CCc3sc(N)c(C#N)c32)C1` [Compound 92, 2-amino-1′-[5-cyano-6-[(1R,5S)-3,8-diazabicyclo[3.2.1]octan-3-yl]-2-[[(2S)-1-(2,2,2-trifluoroethyl)azetidin-2-yl]methoxy]pyrimidin-4-yl]spiro[5,6-dihydrocyclopenta[b]thiophene-4,3′-azetidine]-3-carbonitrile] the pIC50 was 4.00 to 5.00.
Work on `C=C1CN2CCCC2(COc2nc(N3CCCn4nc(C(=O)N(C)C)c(Cl)c4C3)c(C#N)c(N3CC4(CCc5sc(N)c(C#N)c54)C3)n2)C1` (stereo not shown) [Compound 93, 5-[6-(2-amino-3-cyano-spiro[5,6-dihydrocyclopenta[b]thiophene-4,3′-azetidine]-1′-yl)-5-cyano-2-[(6-methylene-2,3,5,7-tetrahydro-1H-pyrrolizin-8-yl)methoxy]pyrimidin-4-yl]-3-chloro-N,N-dimethyl-4,6,7,8-tetrahydropyrazolo[1,5-a][1,4]diazepine-2-carboxamide] yielded a pIC50 of 6.00 to 7.00.

Same assay, conditions: Table 4, listed as 74.1
In the case of `CN(C)CC1(COc2nc(N3CC4CCC(C3)N4)c(C#N)c(N3CC4(CCc5sc(N)c(C#N)c54)C3)n2)CC1(F)F` (stereo not shown) [Compound 74A, 2-amino-1′-[5-cyano-6-(3,8-diazabicyclo[3.2.1]octan-3-yl)-2-[[(1*)-1-[(dimethylamino)methyl]-2,2-difluoro-cyclopropyl]methoxy]pyrimidin-4-yl]spiro[5,6-dihydrocyclopenta[b]thiophene-4,3′-azetidine]-3-carbonitrile], the pIC50 was greater than 7.00.

Same assay, conditions: Table 4, listed as 74.2
For `CN(C)CC1(COc2nc(N3CC4CCC(C3)N4)c(C#N)c(N3CC4(CCc5sc(N)c(C#N)c54)C3)n2)CC1(F)F` (stereo not shown) [Compound 74B, 2-amino-1′-[5-cyano-6-(3,8-diazabicyclo[3.2.1]octan-3-yl)-2-[[(1*)-1-[(dimethylamino)methyl]-2,2-difluoro-cyclopropyl]methoxy]pyrimidin-4-yl]spiro[5,6-dihydrocyclopenta[b]thiophene-4,3′-azetidine]-3-carbonitrile], the pIC50 was 4.00 to 5.00.
